The record followed here is patent US20240317735A1, “HYDROISOQUINOLINE OR HYDRONAPHTHYRIDINE COMPOUNDS FOR THE TREATMENT OF AUTOIMMUNE DISEASE” (Hoffmann-La Roche Inc., priority 2020, published 2024).

Structures are written as SMILES.

The target of data set [1] is T1, human TLR8 (Homo sapiens, UniProt Q9NR97).
T1 construct: host or cells: HEK293 (HEK-Blue hTLR8)
T1 sequence (Q9NR97 27-1041): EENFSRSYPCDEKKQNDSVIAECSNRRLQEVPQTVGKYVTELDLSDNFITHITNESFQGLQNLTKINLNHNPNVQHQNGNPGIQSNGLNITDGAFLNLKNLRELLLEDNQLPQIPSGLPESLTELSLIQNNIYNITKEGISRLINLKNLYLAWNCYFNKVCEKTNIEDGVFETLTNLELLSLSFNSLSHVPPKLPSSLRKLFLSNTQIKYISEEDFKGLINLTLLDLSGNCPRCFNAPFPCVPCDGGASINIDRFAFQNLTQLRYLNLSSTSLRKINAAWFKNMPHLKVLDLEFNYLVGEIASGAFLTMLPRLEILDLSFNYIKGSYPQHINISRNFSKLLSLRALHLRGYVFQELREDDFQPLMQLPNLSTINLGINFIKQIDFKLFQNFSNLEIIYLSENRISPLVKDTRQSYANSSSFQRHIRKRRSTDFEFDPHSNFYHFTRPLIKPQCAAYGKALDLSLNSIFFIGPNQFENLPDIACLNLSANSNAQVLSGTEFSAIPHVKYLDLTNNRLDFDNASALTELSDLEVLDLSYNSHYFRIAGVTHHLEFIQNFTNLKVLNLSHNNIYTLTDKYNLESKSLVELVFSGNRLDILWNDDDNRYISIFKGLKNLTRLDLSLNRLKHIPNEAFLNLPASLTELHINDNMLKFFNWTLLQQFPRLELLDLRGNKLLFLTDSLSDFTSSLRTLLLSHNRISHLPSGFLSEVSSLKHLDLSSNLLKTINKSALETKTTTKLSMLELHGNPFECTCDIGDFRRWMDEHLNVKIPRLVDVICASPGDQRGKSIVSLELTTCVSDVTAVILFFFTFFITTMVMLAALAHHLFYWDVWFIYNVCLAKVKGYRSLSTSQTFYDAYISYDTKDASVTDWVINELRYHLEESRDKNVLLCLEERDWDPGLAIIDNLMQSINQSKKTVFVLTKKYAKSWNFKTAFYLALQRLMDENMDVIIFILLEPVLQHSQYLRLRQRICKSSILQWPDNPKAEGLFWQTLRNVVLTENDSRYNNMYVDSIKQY
As to the kind of experiment: HEK293-Blue-hTLR-8 cells assay (SEAP reporter, R848 stimulation). The format is cell-based. The conditions noted are these: HEK293-Blue-hTLR8 cells, R848, 20 hrs; read-out: HEK/hTLR8 IC50. The procedure: The following tests were carried out in order to determine the activity of the compounds of formula (I) and (Ia) in HEK293-Blue-hTLR-7/8/9 cells assay.
A stable HEK293-Blue-hTLR-8 cell line was purchased from InvivoGen (Cat. #: hkb-htlr8, San Diego, California, USA). These cells were originally designed for studying the stimulation of human TLR8 by monitoring the activation of NF-κB. A SEAP (secreted embryonic alkaline phosphatase) reporter gene was placed under the control of the IFN-β minimal promoter fused to five NF-κB and AP-1-binding sites. The SEAP was induced by activating NF-κB and AP-1 via stimulating HEK-Blue hTLR8 cells with TLR8 ligands. Therefore the reporter expression was declined by TLR8 antagonist under the stimulation of a ligand, such as R848, for incubation of 20 hrs. The cell culture supernatant SEAP reporter activity was determined using QUANTI-Blue™ kit (Cat. #: rep-qb1, Invivogen, San Diego, Ca, USA) at a wavelength of 640 nm, a detection medium that turns purple or blue in the presence of alkaline phosphatase.
HEK293-Blue-hTLR8 cells were incubated at a density of 250,000˜450,000 cells/mL in a volume of 170 μL in a 96-well plate in Dulbecco's Modified Eagle's medium (DMEM) containing 4.5 g/L glucose, […] penicillin, […], […] Normocin, 2 mM L-glutamine, 10% (v/v) heat-inactivated fetal bovine serum with addition of 20 μL test compound in a serial dilution in the presence of final DMSO at 1% and 10 μL of 60 uM R848 in above DMEM, perform incubation under 37° C. in a C02 incubator for 20 hrs. Then 20 μL of the supernatant from each well was incubated with 180 μL Quanti-blue substrate solution at 37° C. for 2 hrs and the absorbance was read at 620-655 nm using a spectrophotometer. The signaling pathway that TLR8 activation leads to downstream NF-κB activation has been widely accepted, and therefore similar reporter assay was modified for evaluating TLR8 antagonist.

Data set [2] in a line: Human microsome stability assay. The format is in vitro ADME. The conditions noted are these: 1 μM test compound, 0.5 mg/mL liver microsomal protein, 37° C., pH 7.4. The procedure:
The human microsomal stability assay is used for early assessment of metabolic stability of a test compound in human liver microsomes.
Human liver microsomes (Cat. NO.: 452117, Corning, USA; Cat. NO.: H2610, Xenotech, USA) were preincubated with test compound for 10 minutes at 37° C. in 100 mM potassium phosphate buffer, pH 7.4. The reactions were initiated by adding NADPH regenerating system. The final incubation mixtures contained 1 μM test compound, 0.5 mg/mL liver microsomal protein, 1 mM MgCl2, 1 mM NADP, 1 unit/mL isocitric dehydrogenase and 6 mM isocitric acid in 100 mM potassium phosphate buffer, pH 7.4. After incubation times of 0, 3, 6, 9, 15 and 30 minutes at 37° C., 300 μL of cold acetonitrile (including internal standard) was added to 100 μL incubation mixture to terminate the reaction. Following precipitation and centrifugation, the amount of compound remaining in the samples were determined by LC-MS/MS. Controls of no NADPH regenerating system at zero and 30 minutes were also prepared and analyzed.

On to `CO[C@@H]1CN(c2ccc3c(c2)[C@@H](C)CN(c2cc(C)nc4c2cnn4C)C3)C[C@H]1N` [Example 23, (3R,4R)-4-methoxy-1-[(4R)-2-(1,6-dimethylpyrazolo[3,4-b]pyridin-4-yl)-4-methyl-3,4-dihydro-1H-isoquinolin-6-yl]pyrrolidin-3-amine], for which, in data set [1], the IC50 came to 7 nM. Further, the “Clearance of Human microsome” value in data set [2] worked out at 7.5 mL/min/kg.

For `C[C@H]1CN(c2ccnc3c2cnn3C)Cc2ccc(N3CC4(CCNCC4)OC3=O)cc21` [Example 26, 3-[(4R)-4-methyl-2-(1-methylpyrazolo[3,4-b]pyridin-4-yl)-3,4-dihydro-1H-isoquinolin-6-yl]-1-oxa-3,8-diazaspiro[4.5]decan-2-one], in data set [1], the IC50 came to 10 nM. For the same compound, the “Clearance of Human microsome” value in data set [2] is recorded as 6.2 mL/min/kg.

With `C[C@H]1CN(c2ccnc3c2cnn3C)Cc2ccc(N3C4CCC3CNC4)cc21` [Example 27, (4R)-6-(3,8-diazabicyclo[3.2.1]octan-8-yl)-4-methyl-2-(1-methylpyrazolo[3,4-b]pyridin-4-yl)-3,4-dihydro-1H-isoquinoline], the IC50 in data set [1] is 3 nM. For the same compound, the “Clearance of Human microsome” value in data set [2] worked out at 6.2 mL/min/kg.

Take `C[C@H]1CN(c2ccnc3c2cnn3C)Cc2ccc(N3CCC(N4CC(N)C4)CC3)cc21` [Example 28, 1-[1-[(4R)-4-methyl-2-(1-methylpyrazolo[3,4-b]pyridin-4-yl)-3,4-dihydro-1H-isoquinolin-6-yl]-4-piperidyl]azetidin-3-amine]: the IC50 in data set [1] was less than 0.3 nM. Further, the “Clearance of Human microsome” value in data set [2] is 6.2 mL/min/kg.

`C[C@H]1CN(c2ccnc3c2cnn3C)Cc2ccc(N3CCC(N4CC[C@@H](N)[C@H](O)C4)CC3)cc21` [Example 29, trans-4-amino-1-[1-[(4R)-4-methyl-2-(1-methylpyrazolo[3,4-b]pyridin-4-yl)-3,4-dihydro-1H-isoquinolin-6-yl]-4-piperidyl]piperidin-3-ol]: in data set [1], the IC50 was 2 nM. The “Clearance of Human microsome” value in data set [2] was 9.7 mL/min/kg.

Turning to `Cc1cc(N2Cc3ccc(OC[C@@H]4CNCCN4)cc3[C@@H](C)C2)c2cnn(C)c2n1` [Example 31, (4R)-2-(1,6-dimethylpyrazolo[3,4-b]pyridin-4-yl)-4-methyl-6-[[(2S)-piperazin-2-yl]methoxy]-3,4-dihydro-1H-isoquinoline], in data set [1], the IC50 was 2 nM. Moreover, the “Clearance of Human microsome” value in data set [2] is reported as 7.9 mL/min/kg.

On to `C[C@H]1CN(c2ccnc3c2cnn3C)Cc2ccc(N3CC4(CNC4)CC3=O)cc21` [Example 34, 6-[(4R)-4-methyl-2-(1-methylpyrazolo[3,4-b]pyridin-4-yl)-3,4-dihydro-1H-isoquinolin-6-yl]-2,6-diazaspiro[3.4]octan-7-one], for which, in data set [1], the IC50 was found to be 26 nM. For the same compound, the “Clearance of Human microsome” value in data set [2] is listed as 10.1 mL/min/kg.

On to `C[C@H]1CN(c2ccnc3c2cnn3C)Cc2ccc(N3CC4(CCNC4)OC3=O)cc21` (stereo partly drawn) [Example 35, 3-[(4R)-4-methyl-2-(1-methylpyrazolo[3,4-b]pyridin-4-yl)-3,4-dihydro-1H-isoquinolin-6-yl]-1-oxa-3,7-diazaspiro[4.4]nonan-2-one], for which, in data set [1], the IC50 is 14 nM. Further, the “Clearance of Human microsome” value in data set [2] came out at 8.4 mL/min/kg.

With `C[C@H]1CN(c2ccnc3c2cnn3C)Cc2ccc(N3CCN(Cc4cn(C)cn4)CC3)cc21` [Example 37, (4R)-4-methyl-6-[4-[(1-methylimidazol-4-yl)methyl]piperazin-1-yl]-2-(1-methylpyrazolo[3,4-b]pyridin-4-yl)-3,4-dihydro-1H-isoquinoline], the IC50 in data set [1] was determined as 5 nM. Besides, the “Clearance of Human microsome” value in data set [2] worked out at 8.2 mL/min/kg.

In the case of `C[C@H]1CN(c2ccnc3c2cnn3C)Cc2ccc(N3CCN(CCN(C)C)CC3)cc21` [Example 38, N,N-dimethyl-2-[4-[(4R)-4-methyl-2-(1-methylpyrazolo[3,4-b]pyridin-4-yl)-3,4-dihydro-1H-isoquinolin-6-yl]piperazin-1-yl]ethanamine], the IC50 in data set [1] is less than 0.3 nM. For the same compound, the “Clearance of Human microsome” value in data set [2] is given as 6.2 mL/min/kg.

As to `C[C@H]1CN(c2ccnc3c2cnn3C)Cc2ccc(OCCN3CCNCC3)cc21` [Example 40, (4R)-4-methyl-2-(1-methylpyrazolo[3,4-b]pyridin-4-yl)-6-(2-piperazin-1-ylethoxy)-3,4-dihydro-1H-isoquinoline], the IC50 in data set [1] came out at 7 nM. Also, in data set [2], the “Clearance of Human microsome” value was found to be 6.2 mL/min/kg.

For `C[C@H]1CN(c2ccnc3c2cnn3C)Cc2ccc(OC3CN(C4CCNCC4)C3)cc21` [Example 41, (4R)-4-methyl-2-(1-methylpyrazolo[3,4-b]pyridin-4-yl)-6-[1-(4-piperidyl)azetidin-3-yl]oxy-3,4-dihydro-1H-isoquinoline], the IC50 in data set [1] was found to be 8 nM. In data set [2], the “Clearance of Human microsome” value came out at 6.2 mL/min/kg.

Consider `C[C@H]1CN(c2ccnc3c2cnn3C)Cc2ccc(O[C@@H]3C[C@H]4CNCCN4C3)cc21` [Example 42, (4R)-4-methyl-2-(1-methylpyrazolo[3,4-b]pyridin-4-yl)-6-[[(7R,8aS)-1,2,3,4,6,7,8,8a-octahydropyrrolo[1,2-a]pyrazin-7-yl]oxy]-3,4-dihydro-1H-isoquinoline], for which, in data set [1], the IC50 came to 2 nM. For the same compound, the “Clearance of Human microsome” value in data set [2] is 6.8 mL/min/kg.

With `C[C@H]1CN(c2ccnc3c2cnn3C)Cc2ccc(OC[C@H]3CNCCN3C)cc21` [Example 43, (4R)-4-methyl-2-(1-methylpyrazolo[3,4-b]pyridin-4-yl)-6-[[(2R)-1-methylpiperazin-2-yl]methoxy]-3,4-dihydro-1H-isoquinoline], in data set [1], the IC50 was found to be 2 nM. Further, the “Clearance of Human microsome” value in data set [2] is recorded as 6.2 mL/min/kg.

As to `C[C@H]1CN(c2ccnc3c2cnn3C)Cc2ccc(OC[C@@H]3CNCCN3C=O)cc21` [Example 45, (2S)-2-[[(4R)-4-methyl-2-(1-methylpyrazolo[3,4-b]pyridin-4-yl)-3,4-dihydro-1H-isoquinolin-6-yl]oxymethyl]piperazine-1-carbaldehyde], the IC50 in data set [1] is 10 nM. For the same compound, the “Clearance of Human microsome” value in data set [2] was 10.4 mL/min/kg.

`C[C@H]1CN(c2ccnc3c2cnn3C)Cc2ccc(N3C[C@@H](N)[C@H](O)C3)cc21` [Example 46, trans-4-amino-1-[(4R)-4-methyl-2-(1-methylpyrazolo[3,4-b]pyridin-4-yl)-3,4-dihydro-1H-isoquinolin-6-yl]pyrrolidin-3-ol]: the IC50 in data set [1] came to 7 nM. For the same compound, in data set [2], the “Clearance of Human microsome” value is 6.2 mL/min/kg.
